Assay results taken from patent US20100105722A1, “Substituted 4,5,6,7-tetrahydrothienopyridines as KCNQ2/3 Modulators” (GRUENENTHAL GmbH, priority 2008, published 2010).

Columns and labels:
hKCNQ2/3 [1] = biological target: T1, hKCNQ2/3 (Homo sapiens, UniProt O43525+O43526); assay: Fluorescence assay using a voltage sensitive dye (fluorimetry); format: cell-based; conditions: for Emax at 10 µM: relative to retigabine = 100%
T1 construct: expressed in transfected cells; host or cells: CHO-K1
Procedure: Fluorescence Assay using a Voltage Sensitive Dye
Human CHO-K1 cells expressing KCNQ2/3 channels are cultivated adherently at 37° C., 5% CO2 and 95% humidity in cell culture bottles (e.g. 80 cm^2 TC flasks, Nunc) with DMEM-high glucose (Sigma Aldrich, D7777) including 10% FCS (PAN Biotech, e.g. 3302-P270521) or alternatively MEM Alpha Medium (1×, liquid, Invitrogen, #22571), 10% fetal calf serum (FCS) (Invitrogen, #10270-106, heat-inactivated) and the necessary selection antibiotics.
Before being sown out for the measurements, the cells are washed with a 1×DPBS buffer without Ca^2+/Mg^2+ (e.g. Invitrogen, #14190-094) and detached from the bottom of the culture vessel by means of Accutase (PAA Laboratories, #L11-007) (incubation with Accutase for 15 min at 37° C.). The cell count then present is determined using a CASY™ cell counter (TCC model, Schärfe System) in order subsequently to apply, depending on the density optimization for the individual cell line, 20,000-30,000 cells/well/100 μl of the described nutrient medium to 96-well measuring plates of the Corning™ CellBIND™ type (Flat Clear Bottom Black Polystyrene Microplates, #3340). Incubation is then carried out for one hour at room temperature, without gassing or adjusting the humidity, followed by incubation for 24 hours at 37° C., 5% CO2 and 95% humidity.
The voltage-sensitive fluorescent dye from the Membrane Potential Assay Kit (Red™ Bulk format part R8123 for FLIPR, MDS Analytical Technologies™) is prepared by dissolving the contents of a vessel Membrane Potential Assay Kit Red Component A in 200 ml of extracellular buffer (ES buffer, 120 mM NaCl, 1 mM KCl, 10 mM HEPES, 2 mM CaCl2, 2 mM MgCl2, 10 mM glucose; pH 7.4). After removal of the nutrient medium, the cells are washed with 200 μl of ES buffer, then covered with a layer of 100 μl of the dye solution prepared above and incubated for 45 min at room temperature with the exclusion of light.
The fluorescence measurements are carried out with a BMG Labtech FLUOstar™, BMG Labtech NOVOstar™ or BMG Labtech POLARstar™ instrument (525 nm excitation, 560 nm emission, Bottom Read mode). After incubation of the dye, 50 μl of the test substances in the desired concentrations, or 50 μl of ES buffer for control purposes, are introduced into separate cavities of the measuring plate and incubated for 30 min at room temperature while being shielded from light. The fluorescence intensity of the dye is then measured for 5 min and the fluorescence value F1 of each well is thus determined at a given, constant time. 15 μl of a […] KCl solution ([…]) are then added to each well. The change in fluorescence is subsequently measured until all the relevant measured values have been obtained (mainly 5-30 min). At a given time after KCl application, a fluorescence value F2 is determined, in this case at the time of the fluorescence peak.
For calculation, the fluorescence intensity F2 is compared with the fluorescence intensity F1, and the agonistic activity of the target compound on the potassium channel is determined therefrom. F2 and F1 are calculated as follows: […]
In order to determine whether a substance has agonistic activity, […]
for example, can be compared with […]
is determined by adding to the reaction batch only the buffer solution instead of the test substance, determining the value F1K of the fluorescence intensity, adding the potassium ions as described above, and measuring a value F2K of the fluorescence intensity. F2K and F1K are then calculated as follows: […]
A substance has an agonistic activity on the potassium channel when […]
Independently of the comparison of […]
it is possible to conclude that a target compound has agonistic activity if an increase in […]
is to be observed as the dosage of the target compound increases.
Calculations of EC50 and IC50 values are carried out with the aid of ‘Prism v4.0’ software (GraphPad Software™).

[2] = system: formalin-induced nociceptive behavior; assay: Formalin test in the rat (phase II, chronic pain component); format: in vivo; conditions: for Formalin test rat i.v. @ 10 mg/kg % reduction in noiceptive behavior: comparison experiments table; for Formalin test rat i.v. % reduction in nociceptive behavior: phase II, Table 3
Procedure: Formalin Test in the Rat The formalin test (Dubuisson, D. and Dennis, S. G., 1977, Pain, 4, 161-174) represents a model for both acute and chronic pain. In the studies presented here, the chronic pain component (phase II of the formalin test; time period 21-27 min after formalin administration) was evaluated. A biphase nociceptive reaction is induced in freely mobile test animals by a single formalin injection into the dorsal side of a rear paw, the reaction being detected by observation of three clearly distinguishable behavior patterns. Formalin is administered subcutaneously into the dorsal side of the right rear paw of each animal in a volume of 50 μl and a concentration of 5%. The vehicle and the test substances are administered intravenously 5 min, or orally 30 min, before the formalin injection. The specific changes in behavior, such as lifting and shaking of the paw, weight displacement of the animal and biting and licking reactions, are observed and recorded continuously up to 60 min after the formalin administration. […] Rats of the strain Sprague Dawley (Janvier, Belgium) are used as the animal strain. The weight of the animals is 180-200 g; the size of the group was n=10.

hKCNQ2/3 [3] = biological target: T1, hKCNQ2/3; assay: Voltage clamp (patch-clamp) measurements on stably transfected hKCNQ2/3 CHO-K1 cell line; format: cell-based; conditions: at -40 mV, relative to retigabine (10 μM) = 100%, read-out: patch-clamp % Efficacy @ 10 μM (retigabine = 100%)
Procedure: Voltage Clamp Measurements
In order to confirm a KCNQ2/3-agonistic action of the substances electro-physiologically, patch-clamp measurements (Hamill O P, Marty A, Neher E, Sakmann B, Sigworth F J.: Improved patch-clamp techniques for high-resolution current recording from cells and cell-free membrane patches, Pflugers Arch. 1981 August; 391(2):85-100) were carried out in voltage clamp mode on a stably transfected hKCNQ2/3 CHO-K1 cell line. After formation of the gigaseal, the cells were first clamped at a holding potential of −60 mV. Thereafter, depolarizing voltage jumps were applied up to a potential of +20 mV (increment: 20 mV, duration: 1 second) in order to confirm the functional expression of KCNQ2/3-typical currents. The testing of the substances was carried out at a potential of −40 mV. The increase in current induced by retigabine (10 μM) at −40 mV was first recorded as a positive control on each cell. After complete washing out of the retigabine effect (duration: 80 s), the test substance (10 μM) was applied. The increase in current induced by the test substance was standardized to the retigabine effect and indicated as the relative efficacy (see below).

[4] = 10 μM, comparison experiments table, read-out: Fluorimetry % Efficacy @ 10 μM (retigabine = 100%)
[5] = CHO-K1, 10 μM, CHO-K1 cells expressing KCNQ2/3, Table 3, read-out: Fluorimetry % Efficacy @ 10 μM (reti-gabine = 100%)
[6] = CHO-K1 cells expressing KCNQ2/3, Table 3

Row | Compound | Emax at 10 µM (hKCNQ2/3 [1]; [5]) [%] | EC50 (hKCNQ2/3 [1]; [6]) [µM] | also measured
1 | O=C(CCC(=O)N1CCn2cccc2C1c1ccccc1)NCc1cccc(C(F)(F)F)c1 (stereo not drawn) [Example No. 2 of WO 2008/046582, reference compound] |  |  | Emax at 10 µM (hKCNQ2/3 [1]; [4]): 115%; EC50 (hKCNQ2/3 [1]; comparison experiments table): 2.81 µM; Formalin test rat i.v. @ 10 mg/kg % reduction in noiceptive behavior [2]: no effect
2 | O=C(CCC(=O)N1CCc2sccc2C1c1ccccc1)NCc1cccc(C(F)(F)F)c1 (stereo not drawn) [Illustrative compound 2, 4-oxo-4-(4-phenyl-6,7-dihydrothieno[3,2-c]pyridin-5(4H)-yl)-N-(3-(trifluoromethyl)benzyl)butanamide] | 165 | 0.758 | Emax at 10 µM (hKCNQ2/3 [1]; [4]): 145%; EC50 (hKCNQ2/3 [1]; comparison experiments table): 1.44 µM; Emax at 10 µM (hKCNQ2/3 [3]): 106%; Formalin test rat i.v. @ 10 mg/kg % reduction in noiceptive behavior [2]: 56%; Formalin test rat i.v. % reduction in nociceptive behavior ([2]; dose 10.0 mg/kg): 56 (10.0) %
3 | O=C(CCC(=O)N1CCc2sccc2C1c1cccs1)NCc1cccc(C(F)(F)F)c1 (stereo not drawn) [compound 1] | 168 | 1.69 | Emax at 10 µM (hKCNQ2/3 [1]; [4]): 165%; EC50 (hKCNQ2/3 [1]; comparison experiments table): 0.76 µM; Emax at 10 µM (hKCNQ2/3 [3]): 97%
4 | Cc1ccccc1C1c2ccsc2CCN1C(=O)CCC(=O)NCc1cccc(C(F)(F)F)c1 (stereo not drawn) [compound 8] | 148 | 0.079 | Formalin test rat i.v. % reduction in nociceptive behavior ([2]; dose 4.64 mg/kg): 11 (4.64) %
5 | O=C(CCC(=O)N1CCc2sccc2C1c1ccccc1)NCc1ccccc1C(F)(F)F (stereo not drawn) [compound 17] | 74 | 0.062 | Formalin test rat i.v. % reduction in nociceptive behavior ([2]; dose 10.0 mg/kg): 15 (10.0) %
6 | O=C(CCC(=O)N1CCc2sccc2C1C1CC1)NCc1cccc(C(F)(F)F)c1 (stereo not drawn) [compound 260] |  | 0.108 | Emax at 10 µM (hKCNQ2/3 [3]): 91%; Formalin test rat i.v. % reduction in nociceptive behavior ([2]; dose 4.64 mg/kg): 46 (4.64) %
7 | O=C(CCC(=O)N1CCc2sccc2C1C1CCCC1)NCc1cccc(C(F)(F)F)c1 (stereo not drawn) [compound 263] |  | 0.16 | 
8 | O=C(CCC(=O)N1CCc2sccc2C1CCCc1ccccc1)NCc1cccc(C(F)(F)F)c1 (stereo not drawn) [compound 265] |  | 0.596 | 

The next lines start with results.

Row | Emax at 10 µM (hKCNQ2/3 [1]; [5]) [%] | EC50 (hKCNQ2/3 [1]; [6]) [µM] | Compound | also measured
9 |  | 0.519 | O=C(CCC(=O)N1CCc2sccc2C1c1ccccc1)N1CCc2ccc(C(F)(F)F)cc2C1 (stereo not drawn) [compound 269] | 
10 |  | 0.431 | O=C(CCC(=O)N1CCc2sccc2C1c1ccccc1)N1CCc2c(cccc2C(F)(F)F)C1 (stereo not drawn) [compound 271] | 
11 |  | 0.323 | Cc1ccccc1C1c2sccc2CCN1C(=O)CCC(=O)NCc1cccc(C(F)(F)F)c1 (stereo not drawn) [compound 274] | 
12 |  | 0.962 | O=C(CCC(=O)N1CCc2ccsc2C1C1CCCCC1)NCc1cccc(C(F)(F)F)c1 (stereo not drawn) [compound 275] | 
